From patent US20220411397A1, “ANALOGUES OF N-ACYL-HOMOSERINE LACTONES AND PHARMACEUTICAL COMPOSITION COMPRISING SAME” (SORBONNE UNIVERSITE, priority 2019, published 2022) come the findings set out here.

For one data set, the system named is human keratinocytes. Briefly: Inhibition of IL-8 secretion by human keratinocytes stimulated by IL-17 and TNF-α. The following applies: keratinocytes stimulated by IL-17 and TNF-α. Type of data set: cell-based.
Another data set relates to Caco-2/TC7 cells. Briefly: Cytotoxicity test, LDH secretion, Caco-2/TC7. The class given is cell-based. The following applies: for cytotoxicity (LDH), Caco-2/TC7: stimulated, low concentrations; for LDH secretion at the higher concentrations: ≥50 μM. As for the experimental part: 1.2.6. […] To measure the concentration of LDH in the cell lysate, 800 μL of NADH was added to 10 μL of […] and 190 μL of 0.1 M PBS in a plastic cuvette, and the decrease in the absorbance at 340 nm was monitored for 1 min. […] The percentage of cytotoxicity could be established with the formula: […]
The cytotoxicity of the tested and control compounds was evaluated using a measurement test of the LDH (Lactate Dehydrogenase) secretion. This test is based on the measurement of the amount of LDH secreted by the cells in their supernatant, compared to the amount of LDH that will remain in the intracellular compartment. This ratio provides an indication of the membrane damage suffered by the cells, and thus of the cytotoxicity of the compound.
Two methods were used to perform this test: the measurement using an extemporaneously prepared pyruvate/NADH solution, or using the Cytotoxicity Detection Kit^PLUS(LDH) from the manufacturer Roche (Sigma-Aldrich).
Pyruvate/NADH method: pyruvate/NADH solution prepared with 4.1 mg pyruvic acid (0.62 mM) and 7.7 mg NADH (0.18 mM) in 60 ml of 0.1M PBS (pH 7.4).
For the measurement of the LDH concentration in the supernatants, 800 μL of NADH was added to 200 μL of supernatant in plastic spectrometry cuvettes, and the decrease in absorbance of the final solution was read at 340 nm for 1 min. For the measurement of the LDH concentration in the cell lysates, 800 μL of NADH was added to 10 μL of cell lysates and 190 μL of 0.1M PBS in plastic spectrometry cuvettes, and the decrease in absorbance of the final solution was read at 340 nm for 1 min. The percentage of LDH secreted was then calculated by the ratio of the decay slopes of the absorbance of the supernatants and of the cell lysates (respectively).
Cytotoxicity Detection Kit^PLUS (LDH) method: absorbance test performed according to the manufacturer's instructions. The percentage of LDH secreted was then calculated by the formula: […]

A further data set concerns human lymphocytes. The data set is described as follows: Inhibition of IL-2 secretion by human lymphocytes stimulated by CD2, CD3 and CD28. The class given is cell-based. The settings on record: lymphocytes stimulated by CD2, CD3 and CD28.
Data set [1] can be described thus: Resistance to hydrolysis giving the open form. Type of data set: physicochemical.

As usually defined, the EC50 is the concentration giving half of the maximal effect. Take `CCCCCCCCCC(=O)CC(=O)N[C@H]1CCCC[C@@H]1O` [I-2, N-[(1S,2S)-2-hydroxycyclohexyl]-3-oxo-dodecanamide]: the concentration giving a half-maximal response (EC50) in the data set with human keratinocytes (Homo sapiens, Keratinocyte, read-out: relative EC50, inhibition of IL-8 secretion) was determined as 111 nM; in the data set with human lymphocytes (Homo sapiens, Lymphocyte, read-out: relative EC50, inhibition of IL-2 secretion) it was 89.9 nM. Also, the “maximum inhibition as % of the inhibition obtained with the reference compound betamethasone” value with human keratinocytes (IL-8 secretion) stood at 39%; in the data set on human lymphocytes (IL-2 secretion), 46%. The “cytotoxicity (LDH), Caco-2/TC7” value in the data set on Caco-2/TC7 cells was “not cytotoxic at low concentrations”. For the same compound, in the data set on Caco-2/TC7 cells, the “LDH secretion at the higher concentrations” value is “not as significant”. The “resistance to hydrolysis (enzymatic and spontaneous)” value in data set [1] was “resistant to the hydrolysis giving an open form (both enzymatic and spontaneous)”.
In turn, `CCCCCCCCCC(=O)CC(=O)N[C@H]1CCCC[C@H]1O` [I-4, N-[(1S,2R)-2-hydroxycyclohexyl]-3-oxo-dodecanamide] yielded an LDH secretion in the data set on Caco-2/TC7 cells (Caco-2/TC7, at 100 μM) of 9%. Further, in the data set on Caco-2/TC7 cells, the “cytotoxicity (LDH), Caco-2/TC7” value was “not cytotoxic at low concentrations” and the “LDH secretion at the higher concentrations” value was “an increase in LDH secretion”.
Turning to `CCCCCCCCCC(=O)CC(=O)Nc1cc(Cl)ccc1O` [I-6, N-(5-chloro-2-hydroxyphenyl)-3-oxododecanamide], the “toxicity (LDH), Caco-2/TC7” value with Caco-2/TC7 cells (any of the concentrations tested) is recorded as “not toxic”.
